A short description of data set [1]: Pre-formulation solubility of CBD, THCV and CBG in solvents. The class given is physicochemical. As to the method: Pre-Formulation Studies: Solubility of CBD, THCV and CBG
The solubility of APIs including CBD, CBG and THCV was determined in various solvents including dimethyl sulfoxide (DMSO), N-Methyl-2-pyrrolidone (NMP), and PEG 400. Briefly, 100 mg of each API was dissolved in 0.5 ml of DMSO, NMP, PEG400 and vortexed until it dissolved completely. All the solutions were then visually observed for any undissolved particles. Further, all the solubility samples were centrifuged, and the supernatant were collected. Samples were then analyzed using HPLC for the amount of drug solubilized in each solvent.

Data set [2] has as its system carrageenan-induced paw edema. Briefly: Carrageenan-induced acute inflammatory (paw edema) model. The class given is in vivo, Sprague Dawley (SD) rats. Particulars: as compared to control (no treatment). As to the method:
Carrageenan-Induced Acute Inflammatory Model
The anti-inflammatory effect of the gel formulations was assessed using carrageenan-induced paw edema model (Whiteley and Dalrymple 1998, Lee and Crosby 1999, Sammons, Raval et al. 2000, Cong, Khaziakhmetova et al. 2015) using Sprague Dawley (SD) rats. This model was deduced suitable for the evaluation of anti-inflammatory and anti-hyperalgesic drugs (Whiteley and Dalrymple 1998, Lee and Crosby 1999, Sammons, Raval et al. 2000, Cong, Khaziakhmetova et al. 2015). Edema was induced in male Sprague Dawley (SD) rats by sub-plantar injection of 50 μL of 0.1% λ-carrageenan (22049 SIGMA λ-Carrageenan plant-mucopolysaccharide, Sigma-Aldrich) gel in nuclease free water into the left hind paw of the animals. The inventors evaluated the intensity, development, and duration of the induced inflammation by measurements of rat paw volume using a digital plethysmometer (LE 7500, Panlab, Harvard Apparatus). Measurements were made prior to edema induction (base-line volume) and at 1, 2, 4, 6, 8, 12, and 24 hrs after sub-plantar carrageenan injection. The intensity of inflammation was assessed by calculating the percentage of increase in paw volume against the base-line measurements. Animals were divided into 4 groups of 4 rats each; group 1: control (no treatment); group 2: CBD gel (Gel A); group 3: CBG gel (Gel I); and group 4: THCV gel (Gel J). […] Therefore, placebo gels were not considered in the study.
For orientation: In the carrageenan paw model, swelling and tenderness develop within hours.

The conditions of data set [3]: solution in propylene glycol, water and ethanol, Stinchcomb et al 2004, cited from earlier work.
The nature of data set [4]: In-vitro skin permeation study (IVPT), Franz diffusion cells. It is filed as in vitro ADME, Human. The following applies: for cumulative drug permeation: end of 72 hrs. As for the experimental part: In-Vitro Skin Permeation Study
The in-vitro permeation and deposition studies were performed under occlusive conditions using jacketed Franz diffusion cells with a 0.636 cm2 permeation area and 5 mL receptor chamber volume. Human skin used was obtained from The New York Fire Fighter's skin bank and originated from the right and left posterior leg regions. Dermatomed, cryopressed split thickness skin with epidermis and dermis were delivered in plastic bags and stored at −80° C. until further use.
Skin was thawed in water for 45 minutes and was cut into small pieces and mounted on Franz cells. Receptor medium containing PBS with 25% (v/v) ethanol and 5% (v/v) Tween 80 was used for the IVPT study. 0.01% (w/v) sodium azide was added in the receiving media and sonicated for 20 mins to degasify it. To ensure the absence of bubbles in the receptor chamber, each cell was turned upside down to allow release of air though the sampling port. The cells were then left to equilibrate for about 10 mins before application of hydrogel samples. To begin the permeation experiment, 0.2 mL samples of each formulation was pipetted onto the donor compartment. The donor compartment of each cell was sealed with parafilm and perforated with a needle and the fastened to the receiving compartment using a clamp. Following the completion of the experimental setup, the Franz diffusion cells were blanketed to prevent photo-degradation of samples and the system kept at 32.3° C. with the use of its circulating water bath to maintain the skin surface temperature of 32° C. throughout the duration of the experiment. A 72 hr experimentation duration was employed with sampling times set at 24 hr increments. 1 mL samples were withdrawn from the receptor chamber via the sampling port and analyzed by HPLC, and the entire remaining receiving media in the receptor chamber was discarded and replaced with a fresh batch. The cumulative amount of drug permeated through the skin per unit area (Qp) was calculated from drug concentration in the receptor fluid and plotted as a function of time. The steady-state flux (J) was determined as the slope of the linear portion of the plot.

Setting [5] is: in DMSO, NMP, PEG 400 and lactic acid.

Like-named read-outs stand apart in the source and are kept apart here.

In the case of `C=C(C)[C@@H]1CCC(C)=C[C@H]1c1c(O)cc(CCCCC)cc1O` [CBD, Cannabidiol, reference compound], the solubility entry in data set [1] (setting [5]) is “high solubility”. For the same molecule, in data set [2], the paw edema result is recorded as “significantly (p<0.0001) reduced”. Also, the “cumulative amount of CBD permeation” value in data set [3] (end of 48 hrs) was about 78.61 µg. Besides, the maximum flux in data set [3] (48 hrs IVPT) is about 1.47 μg/cm^2/hr.
As to `CCCCCc1cc(O)c(C/C=C(\C)CCC=C(C)C)c(O)c1` [CBG, Cannabigerol], the solubility entry in data set [1] is listed as “high solubility”. Further, in data set [2], the paw edema entry is “significantly (p<0.0001) reduced”. Also, the “cumulative drug permeated in the receiving media” value in data set [4] (24 hrs, human skin, gel 10% w/w) is reported as “at least 136 μg/cm^2”. The cumulative drug permeation entry in data set [4] (human skin, gel 10% w/w) is listed as “at least 321 μg/cm^2”.
For the molecule `CCCc1cc(O)c2c(c1)OC(C)(C)[C@@H]1CCC(C)=C[C@@H]21` [THCV, Tetrahydrocannabivarin], in data set [1] (setting [5]), the solubility entry is listed as “high solubility”. Moreover, in data set [2], the paw edema result is listed as “significantly (p<0.0001) reduced”. For the same molecule, the drug permeation entry in data set [4] (24 hours post administration) is on record as “at least 843 g/cm^2”. Besides, in data set [4] (human skin, gel 10% w/w), the cumulative drug permeation result is “at least 2124 μg/cm^2”.

Values taken from patent publication US12233043B1, “Method of transdermal delivery of cannabinoid compositions” (Florida A&M University, priority 2022, dated 2025).
